Experimental data reported in PMC4685510, “A Cell Biologist’s Field Guide to Aurora Kinase Inhibitors” (Frontiers in Oncology, 2015).

Columns and labels:
[1] = tested on: HeLa, RPE1, and U2OS cells; test: Cellular proliferation analysis (ATPLite, 24 h)
HeLa cells = test: Live cell-activated caspase 3/7 assay; format: cell-based, human; conditions: within 24 h of treatment
Experimental: HeLa cells (6,000/well) were seeded in 96-well μCLEAR plates (Greiner) in 100 μL DMEM plus serum, and incubated for 16 h at 37°C and 5% CO2. […] After 24 h 2 μM CellEvent Caspase-3/7 Green Reagent (Life Technologies), and NucBlue Live ReadyProbes Reagent (Hoechst 33342; Life Technologies) were added. Cells were imaged after 60 min on a CV7000 spinning disk confocal system (Yokogawa Electric Corporation) with a 20 × 0.75 NA U-PlanApo objective and 2560 × 2160 sCMOS camera with 2 × 2 binning. The imaging chamber was maintained at 37°C and 5% CO2. Six to eight fields/well were imaged, with duplicate wells for each condition. 3 μm × 2 μm z-sections in the blue (40% power, 300 ms, 35% gain) and green (40% power, 300 ms, 35% gain) channels were captured in each field. The apoptotic fraction was calculated by dividing the number of cells fluorescing at 530 nm (corresponding to the cleaved caspase reporter reagent) by the number of nuclei (Hoechst staining). Image analysis was done using the CV7000 image analysis software (Yokogawa Electric Corporation).

[2] = tested on: pH3(Ser 28) in HeLa cells; test: Substrate phosphorylation immunofluorescence assay, pH3(Ser 28), HeLa; format: cell-based, human; conditions: 8 h inhibitor treatment
Experimental: After 8 h cells were fixed with 4% PFA for 20 min at room temperature. The fixed cells were washed with PBS. For immunostaining, cells were permeabilized and blocked with PBS containing 10% normal donkey serum (Jackson ImmunoResearch) and 0.1% Triton-X100 for 1 h at room temperature. Primary antibodies against phospho-LATS2 (Ser 83), phospho-histone H3(Ser 28), and anti-phospho-MPM2 (see Table S3 in Supplementary Material) were incubated for 1 h at room temperature. […] Cells were then washed twice with PBS containing 0.1% Triton-X100. […] Fifty fields per well were imaged with quadruplicate wells for each condition. Image analysis was done using the CV7000 image analysis software (Yokogawa Electric Corporation). Between 100 and 1,000 mitotic cells per condition were segmented applying object identification parameters to select for bright MPM2 labeling. Using a nuclear identifier protocol, minimum intensity thresholds were set for pLATS2(Ser 83) and the pH3(Ser 28) signals, and the resulting identified objects were eroded, dilated, and filtered for size by user-defined thresholds. […] The same thresholds were applied for all of the inhibitor-treated samples, which were processed, imaged, and analyzed in parallel with control DMSO-treated cells. Data were fit using a four-parameter, variable slope fit in Prism (GraphPad).

Aurora B = conditions: ref 59; read-out: Aurora B IC50 (Published); cited from earlier work
Aurora B/INCENP^783–918 = target: T1, Aurora B/INCENP^783–918 (Homo sapiens, UniProt Q96GD4); test: Aurora B/INCENP^783–918 kinase assay (ADP-Glo); format: biochemical
T1 construct: purchased SignalChem
T1 sequence (Q96GD4 whole entry): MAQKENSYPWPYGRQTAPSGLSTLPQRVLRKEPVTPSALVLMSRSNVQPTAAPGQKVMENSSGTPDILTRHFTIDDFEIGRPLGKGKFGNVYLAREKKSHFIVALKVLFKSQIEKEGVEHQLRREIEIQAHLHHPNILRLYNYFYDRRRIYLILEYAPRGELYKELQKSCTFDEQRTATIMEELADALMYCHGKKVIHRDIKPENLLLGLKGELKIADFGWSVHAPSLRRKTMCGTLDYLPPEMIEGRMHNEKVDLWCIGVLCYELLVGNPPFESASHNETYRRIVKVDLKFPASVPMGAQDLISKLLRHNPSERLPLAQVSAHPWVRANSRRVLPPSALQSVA
T1 sequence (Q9NQS7 783-918 partner limits assumed): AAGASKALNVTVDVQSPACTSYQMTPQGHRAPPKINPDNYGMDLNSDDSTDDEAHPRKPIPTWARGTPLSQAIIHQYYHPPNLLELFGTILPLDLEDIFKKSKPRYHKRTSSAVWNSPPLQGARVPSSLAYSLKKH

Aurora A/TPX2^1–43 = target: T2, Aurora A/TPX2^1–43 (Homo sapiens, UniProt O14965); test: Aurora A/TPX2^1–43 kinase assay (ADP-Glo)
T2 sequence (O14965 1-403): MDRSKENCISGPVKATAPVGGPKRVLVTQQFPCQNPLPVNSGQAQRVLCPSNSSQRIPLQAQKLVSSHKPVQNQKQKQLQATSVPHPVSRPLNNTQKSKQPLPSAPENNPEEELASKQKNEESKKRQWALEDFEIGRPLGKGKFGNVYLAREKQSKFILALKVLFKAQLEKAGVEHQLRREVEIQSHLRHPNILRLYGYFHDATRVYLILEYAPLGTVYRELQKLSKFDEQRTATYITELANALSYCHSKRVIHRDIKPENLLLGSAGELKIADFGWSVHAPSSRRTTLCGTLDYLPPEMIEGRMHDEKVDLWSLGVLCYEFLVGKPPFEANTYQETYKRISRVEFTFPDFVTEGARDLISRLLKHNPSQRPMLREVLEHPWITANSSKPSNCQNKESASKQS
T2 sequence (Q9ULW0 1-43 partner limits assumed): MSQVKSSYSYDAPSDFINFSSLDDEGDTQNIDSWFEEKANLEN

[3] = tested on: pLATS2(Ser 83) in HeLa cells; test: Substrate phosphorylation immunofluorescence assay, pLATS2(Ser 83), HeLa; format: cell-based, human; conditions: Homo sapiens, HeLa, 8 h, read-out: pLATS2 (Ser83) IC50, HeLa; 8 h inhibitor treatment
Experimental: We employed the protocol described in Figure 3D to analyze substrate phosphorylation in HeLa cells following treatment with all 10 inhibitors in dose–response. Asynchronous cells were incubated with vehicle (DMSO) or different inhibitor doses for 8 h and then fixed and labeled with a mixture of three antibodies directed against pLATS2(Ser 83), pH3(Ser 28), and MPM2 [which detects mitotic phosphoepitopes; ([86])]. While both the anti-pLATS2(Ser 83) and MPM2 antibodies are mouse monoclonals, they are of different IgG subclasses [IgG2b for anti-pLATS2(Ser 83) and IgG1 for MPM2], and can thus be detected with subclass-specific secondary antibodies (Table S3 in Supplementary Material).
In control mitotic cells, pLATS2(Ser 83) is concentrated in foci around the spindle poles (Figure 3E; top row – green arrow) and pH3(Ser 28) is on the mitotic chromatin (Figure 3E; top row – red arrow). Selective kinase inhibition should result in loss of one signal but not the other, as illustrated by the example images for specific conditions in Figure 3E (middle and bottom rows). Cells were imaged in 4 channels to visualize pLATS2(Ser 83), pH3(Ser 28), MPM2, and DNA (labeled with Hoechst) and mitotic cells were segmented based on their bright MPM2 labeling (Figure 3E). Intensity and area thresholds were set to select the pLATS2(Ser 83) foci and the pH3(Ser 28)-labeled chromatin in their respective channels in DMSO-treated control cells and the same thresholds were applied for inhibitor-treated cells. The mean fluorescence intensity per pixel was measured to assess the activities of the kinases targeting these two substrate phosphorylation sites.
Twelve thousand HeLa cells, 10,000 U2OS cells, or 8,000 RPE1 cells were seeded into 96-well glass-bottom Sensoplates (Greiner) 16 h before inhibitor addition. Prior to seeding, the glass-bottom plates were coated with poly-L-lysine (Sigma). […] After 8 h cells were fixed with 4% PFA for 20 min at room temperature. The fixed cells were washed with PBS. For immunostaining, cells were permeabilized and blocked with PBS containing 10% normal donkey serum (Jackson ImmunoResearch) and 0.1% Triton-X100 for 1 h at room temperature. Primary antibodies against phospho-LATS2 (Ser 83), phospho-histone H3(Ser 28), and anti-phospho-MPM2 (see Table S3 in Supplementary Material) were incubated for 1 h at room temperature. […] Cells were then washed twice with PBS containing 0.1% Triton-X100. Image acquisition in four channels was performed using a CV7000 spinning disk confocal system (Yokogawa Electric Corporation) with a 40 × 0.95 NA U-PlanApo objective and 2560 × 2160 pixel sCMOS camera. […] Fifty fields per well were imaged with quadruplicate wells for each condition. Image analysis was done using the CV7000 image analysis software (Yokogawa Electric Corporation). Between 100 and 1,000 mitotic cells per condition were segmented applying object identification parameters to select for bright MPM2 labeling. Using a nuclear identifier protocol, minimum intensity thresholds were set for pLATS2(Ser 83) and the pH3(Ser 28) signals, and the resulting identified objects were eroded, dilated, and filtered for size by user-defined thresholds. For only the MPM2-positive mitotic cells, the mean fluorescence intensity of the identified pLATS2(Ser 83) and pH3(Ser 28) objects was measured, and the average intensity per cell per well was calculated. The same thresholds were applied for all of the inhibitor-treated samples, which were processed, imaged, and analyzed in parallel with control DMSO-treated cells. Data were fit using a four-parameter, variable slope fit in Prism (GraphPad). Primary and secondary antibody dilutions can be found in Table S3 in Supplementary Material.

[4] = target: T3, full-length human Aurora A (Homo sapiens, UniProt O14965); test: Aurora A kinase assay (ADP-Glo, Kemptide substrate)
T3 sequence (O14965 1-403): T2 sequence (O14965 1-403)

Aurora A = conditions: ref 59; read-out: Aurora A IC50 (Published); cited from earlier work
[5] = fold difference in potency calculated by dividing Ki values

In the case of `CCN1CCN(C(=O)Cc2ccc(Nc3ncc(F)c(Nc4ccc(C(=O)Nc5ccccc5Cl)cc4)n3)cc2)CC1` [Genentech Aurora Inhibitor 1], the “Toxicity / cytotoxicity (cellular proliferation)” value ([1]; HeLa, RPE1, U2OS, 24 h (Figure 4D, Figure S2B)) is reported as “cytotoxic”, the Effect on proliferation ([1]; HeLa, within 24 h of treatment) is reported as “significantly reduced proliferation” and the “Toxicity (reduced proliferation)” value ([1]; U2OS and RPE1 cells, 24 h) is reported as “toxicity”. For the same molecule, the Apoptosis (HeLa cells) was “apoptotic cell death”, the “pHistone H3 (Ser28) IC50” value [2] was “NE@9 μM” and the “pHistone H3 (Ser28) IC50” value ([2]; listed as Genentech Aurora Inh 1) was “NE (9 μM)”. For the same molecule, the IC50 (Aurora B) was 3400 nM, the Ki (Aurora B/INCENP^783–918) was 156 ± 33.7 nM and the Ki (Aurora A/TPX2^1–43) was 0.24 ± 0.02 nM. The “Increase of affinity for Aurora A by TPX2^1–43” value (Aurora A/TPX2^1–43; Aurora A Ki versus Aurora A/TPX2^1–43 Ki) was 2.5 fold, the “Selectivity ratio Aur A-TPX2^1–43 versus Aur B-INCENP^783–918” value (Aurora A/TPX2^1–43; [5]) was 654 fold and the IC50 [3] was 490 nM. The Ki ([4]; Aurora A Ki Mean ± SD, [ATP] = Km(ATP) (35 μM), Ki calculated from IC50 with tight-binding equation) was 0.57 ± 0.06 nM, the “Selectivity ratio Aur A versus Aur A-TPX2^1–43” value [4, 5] was 0.4 fold and the “Selectivity ratio Aur A versus Aur B-INCENP^783–918” value [4, 5] was 274 fold. For the same molecule, the IC50 (Aurora A) was 3.4 nM.
